The record followed here is patent US20240207265A1, “TREATMENT OF CNS DISEASES WITH sGC STIMULATORS” (Tisento Therapeutics Inc., priority 2021, published 2024).

The subject of this experiment is MPTP-induced cognitive deficits. The experiment can be described thus: Chronic low dose MPTP-lesioned macaque model of cognitive deficits in Parkinson's disease. Format: in vivo, cynomolgus macaques. The settings on record: 3.0 mg/kg oral daily monotherapy. An excerpt:
This study was a non-GLP study in the chronic low dose MPTP-lesioned macaque model of Parkinson's disease. This model has been described in the literature (https://www.ncbi.nlm.nih.gov/pmc/articles/PMC3282499/). The study was designed to assess effects of Compound I-14, administered as monotherapy, on performance of the following cognitive tasks: variable delayed response (VDR), continuous performance (CPT), visual discrimination reversal learning (SDR) and object retrieval (OR). The study was conducted in animals that had received prior treatment with low doses of MPTP and were known to have difficulties in the performance of the above-mentioned tasks. These studies utilised four male cynomolgus macaques with MPTP-induced cognitive deficits. The study had 4 parts. The first part of the study was to collect baseline data from the four animals on the four tasks to be studied. The second part of the study was to administer vehicle (sterile, filtered distilled water) over a 16 day period and collect vehicle data on the four tasks once per week for two weeks. In the third part of the study, Compound I-14 was administered orally daily for five days and then data were collected on the four tasks once per week for two weeks, with continued daily administration of Compound I-14 (3.0 mg/kg) 2 hrs. prior to each days testing. In the final part of the study, there was a 9 day washout period and then data were collected on the four tasks once per week for two weeks. One dose of Compound I-14 was assessed as monotherapy (3.0 mg/kg) following five days of pre-dosing and daily dosing for two weeks. The effects of the treatment on cognitive performance was assessed 2 hrs. after daily drug administration and during drug washout. MPTP-HCl was administered by i.v. injection at doses ranging from 0.05 mg/kg to 0.30 mg/kg, 2 to 3 times per week for several months. MPTP administration continued until cognitive deficits appeared with minimal/mild parkinsonian motor impairment. Animals were considered “cognitively impaired” if they show at least a 15% decrease in cognitive task performance from pre-MPTP baseline levels. Because response to MPTP is somewhat idiosyncratic, MPTP was administered to effect (i.e., development of cognitive deficits and then development of motor deficits), rather than given for a particular duration of exposure or a particular cumulative dose of MPTP. […] The measure recorded for each session is: 1) total number of trials needed to learn the initial discrimination (i.e. reach the specified criterion of 14/16 correct, and; 2) total number of trials needed to learn (i.e., reach the same criterion as mentioned above) the reversal in which the previously negative (unrewarded) stimulus is now the positive (rewarded) stimulus (i.e., reach criterion). […]

Consider `Cc1cc(F)c(Cc2nc(-c3ncc(F)c(O)n3)cn3ccnc23)cc1F` [Compound I-14, 5-fluoro-2-(8-(2,5-difluoro-4-methylbenzyl)imidazo[1,2-a]pyrazin-6-yl)pyrimidin-4-ol], for which the Simple discrimination performance result is “not significantly changed” and the “number of trials needed to reach criterion to learn the discrimination reversal” value was “significantly reduced”. The “animals failing to learn the discrimination reversal” value (four animals) was “none of the animals failed to learn the reversal”. Besides, the “SDR (discrimination reversal) performance” value (tested 2 hrs after dosing) was “significantly improved performance”.
